Data as given in US10945980B2, “Treatment for myopia” (The University of Newcastle, priority 2016, dated 2021).

Experiments:
Assay type in all cases: in vivo, guinea pig (Cavia porcellus)
[1] = system: normal eye growth in guinea pigs; test: Eye drops on normal growth and emmetropization (no lens wear); details: eye drops twice daily 9-16 days of age
Experimental: Two experimental protocols were employed (see Table 4). In Experiment 1, young guinea pigs wore a −6D lens on one eye from 5-12 days of age. They were randomly divided within each litter into two groups of 10 animals each, and received either a drop of L-Arginine (100 mM, 1.7%) in Saline (pH 7.4) or Saline alone (0.9%, pH 7.4) twice per day in the eye wearing the lens (Table 4). Drops were administered at the beginning of their light cycle and again approximately 6 hrs later in the middle of their day cycle. Lenses were removed during the drop administration which occurred under dim red light or in darkness. A single large drop was bathed on the cornea for 3 min in the lens-wearing eye in hand held animals. A clean lens was then reintroduced onto the eye. In Experiment 2, 14 guinea pigs were given eye drops in the same manner as in Experiment 1, but in both eyes and without any lens-wear, to determine the effect of the eye drops on normal eye growth. Animals received one drop of either 1.7% L-arginine (n=7) or atropine (Minims Atropine Sulphate 1%, Bausch & Lomb, preservative free, n=7) in one eye and saline (0.9%) in the other eye twice per day from 9-16 days of age.
In Experiment 1, at the end of the lens-wearing period, at 12 days of age just before the morning lights came on, both eyes were cyclopleged (1% Cyclopentolate—to paralyse the focussing muscles of the eye to a resting state) and 1.25 hours later, refractive error (RE) was measured. Animals were then anaesthetised with gaseous anaesthetic (1.5% isoflurane in oxygen) and eye length measures were taken in both eyes with high frequency ultrasound as described in Example 1. Biometry measures were also taken in the same manner before the lens wear period at 5 days of age. [No refractive measures were done at 5 days of age as cycloplegia could have interfered with the drug or lens response]. In Experiment 2, refractive error and eye length using ultrasound were measured in the same manner at 17 days of age, 24 hours after the previous drop was administered.
After cycloplegia was induced, refractive error was measured in each eye using an Autorefractor (Nidek AR-20, Japan). The spherical equivalent was calculated as the average of the sphere plus half the cylinder as is normal in clinical practice. All reported refractive errors are the spherical equivalent. Next, ocular length was measured using high frequency ultrasound (20 MHz) as previously described (McFadden et al, 2004). At least 20 traces were recorded for each eye and distances were averaged for at least 10 of these recordings. Peaks from the recordings were selected for the back of the cornea, the crystalline lens, and the vitreous chamber, and the layers at the back of the eye: the retina, choroid, and sclera. Ocular length was defined as the summed measurement from the front of the cornea to the back of the sclera.
Differences between the two eyes were analysed by a 2-tailed T-tests. The mean of calculated differences between the two eyes is referred to as relative myopia or relative ocular length and the difference in the change in ocular length in the treated compared to the untreated eye as relative growth.

[2] = system: normal growth of guinea pig eyes; test: Intravitreal nωPLA on normal growth (animals without lenses); details: 6 mM nωPLA right eye vs vehicle left eye, 3 days from P13, no lenses
Experimental: (§1) In this second experiment, thirty four guinea pigs were raised and measured as described in Example 1. To induce myopia, animals wore a −6D lens on one eye from P6-P13, which was then removed for 3 days to initiate recovery from myopia, exactly as described in Example 1, Group 3. During the recovery period, animals received daily intravitreal injections (10 μl into the eye which had worn the lens) of either 6 mM nωPLA (PLA, n=9) or vehicle (0.9% isotonic saline, pH 7.4, n=11) on postnatal days P13, P14, and P15. To study the effect of the drugs on normal growth, a further seven animals were raised for the same period without lenses, and from P13 received a vehicle injection into the left eye and a 6 mM nωPLA injection into the right eye for 3 days. The dosage level of 6 mM refers to the concentration of nωPLA in the syringe. (Considerably smaller doses would be experienced at the level of the retina). In all animals, refractive error and axial parameters were measured in both eyes before and after the recovery period, at P13 and P16. In lens-wearing animals, untreated fellow eyes served as matched controls and data is expressed as the relative difference between the lens-wearing eye and the fellow eye.

[3] = system: recovery from myopia in guinea pigs; test: Intravitreal nωPLA during recovery from −6D lens-induced myopia
From the text: That is, if up-regulation of nNOS was causal in the myopic recovery response, injections of nωPLA would be expected to inhibit the ability of the myopic eye recover from myopia.
as §1

SMILES | ocular length on average ([1]; measured at 17 days, p=0.22 between groups) | mean refractive error, both eyes averaged ([1]; measured at 17 days, p=0.32 between groups) | effect on refractive error (drug eye vs saline eye) ([1]; no lens, 1.7% LA (p=0.69) or 1% Atropine (p=0.40)) | difference between the two eyes in ocular length (drug eye vs saline control eye) ([1]; LA p=0.39, ATR p=0.42) | elongation in animals without myopia [2] | relative myopia in animals without myopia [2] | difference between the eyes in refractive error after the three day recovery period ([3]; 6 mM nωPLA (in syringe) 10 μl intravitreal daily P13-P15, measured P16) | ocular length relative to the saline group after the recovery period ([3]; 6 mM nωPLA intravitreal daily P13-P15, measured P16)
CN1[C@@H]2CC[C@H]1C[C@@H](OC(=O)C(CO)c1ccccc1)C2 (some centres unmarked) [Atropine] | 8.192 mm | +5.08 | no difference in mean refractive error between the two eyes | +20 μm |  |  |  | 
CCCN=C(N)NCCC[C@H](N)C(=O)O [nωPLA, N-w-propyl-L-arginine] |  |  |  |  | no influence | no influence | −5.4 D | had longer eyes
